Data on 19 molecules can be found in patent publication US11306084B2, “Integrin antagonists” (Saint Louis University, priority 2016, dated 2022).

Broadly, the IC50 is the point on the concentration scale where inhibition reaches its midpoint.

Format in all cases: binding
In assay [1] the target is T1, Recombinant human integrin ανβ1 (Homo sapiens, UniProt P05556+P06756).
T1 construct: purchased R&D Systems 6579-AV
The experiment in a line: Solid Phase Receptor Assay (SPRA) for ανβ1 function. The settings on record: for IC50: plate-bound human fibronectin, read-out: αvβ1 SPRA IC50.

Assay [2] has as its target T2, Recombinant human integrin ανβ3 (Homo sapiens, UniProt P05106+P06756).
T2 construct: purchased R&D Systems 3050-AV
The experiment in a line: Solid Phase Receptor Assay (SPRA) for ανβ3 function. The settings on record: for IC50: plate-bound human vitronectin, read-out: αvβ3 SPRA IC50.

The target in assay [3] is T3, Recombinant human integrin ανβ8 (Homo sapiens, UniProt P06756+P26012).
T3 construct: purchased R&D Systems 4135-AV
T3 sequence (P06756 31-992 limits assumed): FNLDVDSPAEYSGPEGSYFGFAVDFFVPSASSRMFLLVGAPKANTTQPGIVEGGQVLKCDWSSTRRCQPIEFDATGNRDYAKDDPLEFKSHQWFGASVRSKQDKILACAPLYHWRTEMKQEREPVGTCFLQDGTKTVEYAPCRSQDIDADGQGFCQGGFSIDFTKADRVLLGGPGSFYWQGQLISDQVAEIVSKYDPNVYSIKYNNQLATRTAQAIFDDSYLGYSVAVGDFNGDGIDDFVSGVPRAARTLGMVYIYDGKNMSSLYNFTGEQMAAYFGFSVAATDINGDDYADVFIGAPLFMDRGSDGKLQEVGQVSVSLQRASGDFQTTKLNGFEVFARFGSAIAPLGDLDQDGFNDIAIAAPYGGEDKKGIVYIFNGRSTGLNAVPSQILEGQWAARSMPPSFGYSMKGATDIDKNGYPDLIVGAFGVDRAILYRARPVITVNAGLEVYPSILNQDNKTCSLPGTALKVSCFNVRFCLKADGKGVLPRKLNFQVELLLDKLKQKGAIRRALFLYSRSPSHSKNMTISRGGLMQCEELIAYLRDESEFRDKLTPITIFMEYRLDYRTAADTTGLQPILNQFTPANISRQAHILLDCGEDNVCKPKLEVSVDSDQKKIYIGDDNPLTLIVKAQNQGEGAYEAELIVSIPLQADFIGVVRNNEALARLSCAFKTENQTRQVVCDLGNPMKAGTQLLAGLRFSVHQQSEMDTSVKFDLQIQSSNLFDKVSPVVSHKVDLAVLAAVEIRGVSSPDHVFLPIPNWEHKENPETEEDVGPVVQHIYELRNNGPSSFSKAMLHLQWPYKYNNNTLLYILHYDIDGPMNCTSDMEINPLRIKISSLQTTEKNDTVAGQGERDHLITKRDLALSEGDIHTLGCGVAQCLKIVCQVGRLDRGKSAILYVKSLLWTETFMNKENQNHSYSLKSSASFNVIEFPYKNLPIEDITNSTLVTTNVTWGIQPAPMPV
T3 sequence (P26012 43-684 limits assumed): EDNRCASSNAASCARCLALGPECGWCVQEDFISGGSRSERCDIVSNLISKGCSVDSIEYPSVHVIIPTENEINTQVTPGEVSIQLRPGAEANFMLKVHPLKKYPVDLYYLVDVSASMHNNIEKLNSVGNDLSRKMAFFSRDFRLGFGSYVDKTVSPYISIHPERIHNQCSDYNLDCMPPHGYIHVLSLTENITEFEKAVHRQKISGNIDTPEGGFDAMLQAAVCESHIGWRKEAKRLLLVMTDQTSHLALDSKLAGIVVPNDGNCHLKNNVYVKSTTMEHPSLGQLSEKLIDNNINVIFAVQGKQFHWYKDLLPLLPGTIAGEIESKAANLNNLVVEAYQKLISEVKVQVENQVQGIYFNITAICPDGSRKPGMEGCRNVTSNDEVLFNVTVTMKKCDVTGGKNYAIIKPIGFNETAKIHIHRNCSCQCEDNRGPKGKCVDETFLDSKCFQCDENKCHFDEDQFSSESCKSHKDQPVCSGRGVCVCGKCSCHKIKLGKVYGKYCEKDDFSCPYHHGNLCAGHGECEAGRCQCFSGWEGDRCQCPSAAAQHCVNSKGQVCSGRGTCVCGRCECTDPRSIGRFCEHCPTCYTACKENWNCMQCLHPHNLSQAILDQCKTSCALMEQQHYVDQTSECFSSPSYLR
Nature of the assay: Solid Phase Receptor Assay (SPRA) for ανβ8 function. The settings on record: for IC50: plate-bound human LAP, read-out: αvβ8 SPRA IC50.

For assay [4], the target named is T4, Recombinant human integrin α5β1 (Homo sapiens, UniProt P05556+P08648).
T4 construct: purchased R&D Systems 3230-A5
T4 sequence (P08648 42-995 limits assumed): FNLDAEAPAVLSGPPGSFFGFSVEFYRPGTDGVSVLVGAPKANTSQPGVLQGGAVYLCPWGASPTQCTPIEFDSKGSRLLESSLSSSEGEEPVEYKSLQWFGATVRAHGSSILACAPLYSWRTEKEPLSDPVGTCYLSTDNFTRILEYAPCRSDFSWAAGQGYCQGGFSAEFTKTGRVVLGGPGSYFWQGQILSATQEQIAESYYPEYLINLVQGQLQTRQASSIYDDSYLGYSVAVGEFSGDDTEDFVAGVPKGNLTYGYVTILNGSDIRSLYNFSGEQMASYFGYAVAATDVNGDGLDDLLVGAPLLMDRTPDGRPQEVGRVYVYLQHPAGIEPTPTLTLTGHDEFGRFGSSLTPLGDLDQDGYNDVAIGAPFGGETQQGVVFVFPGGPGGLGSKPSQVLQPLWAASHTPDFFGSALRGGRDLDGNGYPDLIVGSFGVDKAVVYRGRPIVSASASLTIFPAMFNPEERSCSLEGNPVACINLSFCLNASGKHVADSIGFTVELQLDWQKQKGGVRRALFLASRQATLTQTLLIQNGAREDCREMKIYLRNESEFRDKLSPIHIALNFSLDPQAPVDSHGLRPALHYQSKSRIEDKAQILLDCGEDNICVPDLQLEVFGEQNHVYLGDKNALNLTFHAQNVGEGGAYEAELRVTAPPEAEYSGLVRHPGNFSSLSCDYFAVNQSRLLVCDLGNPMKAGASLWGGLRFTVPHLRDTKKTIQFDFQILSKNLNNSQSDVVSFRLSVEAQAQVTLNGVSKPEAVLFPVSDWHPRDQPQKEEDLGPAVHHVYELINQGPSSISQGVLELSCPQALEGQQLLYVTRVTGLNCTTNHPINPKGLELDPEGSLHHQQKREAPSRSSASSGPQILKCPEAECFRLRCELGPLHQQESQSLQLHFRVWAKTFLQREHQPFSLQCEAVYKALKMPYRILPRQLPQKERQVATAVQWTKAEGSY
T4 sequence (P05556 21-728 limits assumed): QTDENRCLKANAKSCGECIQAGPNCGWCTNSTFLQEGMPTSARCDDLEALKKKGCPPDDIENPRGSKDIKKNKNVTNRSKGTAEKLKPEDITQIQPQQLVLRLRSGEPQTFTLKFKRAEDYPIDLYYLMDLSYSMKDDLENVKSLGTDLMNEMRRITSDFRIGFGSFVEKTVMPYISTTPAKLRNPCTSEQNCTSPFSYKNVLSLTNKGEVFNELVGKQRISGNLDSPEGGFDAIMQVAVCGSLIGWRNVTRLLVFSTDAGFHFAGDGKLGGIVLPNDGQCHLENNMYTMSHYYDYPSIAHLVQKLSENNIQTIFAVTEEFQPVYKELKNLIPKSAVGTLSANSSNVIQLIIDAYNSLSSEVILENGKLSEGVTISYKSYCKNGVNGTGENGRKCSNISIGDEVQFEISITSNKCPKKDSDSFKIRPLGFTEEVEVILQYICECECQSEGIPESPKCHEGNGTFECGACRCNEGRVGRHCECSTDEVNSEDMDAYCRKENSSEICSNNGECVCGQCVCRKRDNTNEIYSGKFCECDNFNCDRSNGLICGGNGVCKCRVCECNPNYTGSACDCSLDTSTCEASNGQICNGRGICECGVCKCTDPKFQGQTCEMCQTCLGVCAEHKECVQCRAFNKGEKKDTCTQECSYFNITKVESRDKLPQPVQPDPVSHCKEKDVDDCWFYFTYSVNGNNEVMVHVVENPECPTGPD
Nature of the assay: Solid Phase Receptor Assay (SPRA) for α5β1 function. The settings on record: for IC50: plate-bound human fibronectin.

Where a name gives a salt, the structure may show the parent alone.

T2 sequence (P06756 31-992 limits assumed): as the sequence (P06756 31-992 limits assumed) above
T2 sequence (P05106 27-718 limits assumed): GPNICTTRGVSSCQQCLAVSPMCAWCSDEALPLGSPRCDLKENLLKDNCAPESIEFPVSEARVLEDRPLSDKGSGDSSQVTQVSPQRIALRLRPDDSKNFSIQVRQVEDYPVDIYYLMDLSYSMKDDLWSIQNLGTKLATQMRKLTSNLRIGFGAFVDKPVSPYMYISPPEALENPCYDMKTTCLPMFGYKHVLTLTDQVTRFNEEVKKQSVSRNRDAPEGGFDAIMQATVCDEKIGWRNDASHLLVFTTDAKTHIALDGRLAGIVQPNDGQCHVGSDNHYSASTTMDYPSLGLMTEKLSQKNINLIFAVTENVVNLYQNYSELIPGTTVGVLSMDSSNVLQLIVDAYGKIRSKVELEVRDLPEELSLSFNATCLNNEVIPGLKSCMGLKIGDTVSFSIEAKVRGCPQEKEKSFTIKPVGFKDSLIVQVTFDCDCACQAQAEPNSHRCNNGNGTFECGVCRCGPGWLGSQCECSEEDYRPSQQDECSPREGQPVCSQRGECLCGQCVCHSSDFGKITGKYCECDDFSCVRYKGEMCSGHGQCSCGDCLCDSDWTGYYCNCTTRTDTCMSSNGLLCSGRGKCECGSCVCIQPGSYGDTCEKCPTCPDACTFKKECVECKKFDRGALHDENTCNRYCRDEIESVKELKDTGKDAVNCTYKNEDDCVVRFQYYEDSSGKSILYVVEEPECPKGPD
T1 sequence (P06756 31-992 limits assumed): as the sequence (P06756 31-992 limits assumed) above
T1 sequence (P05556 21-728 limits assumed): as the sequence (P05556 21-728 limits assumed) above

`Cn1nc(CC(CC(=O)O)c2cc(F)cc(C(C)(C)C(F)(F)F)c2)cc1OCCc1ccc2c(n1)NCCC2` (centres unmarked) [Example 24, 3-(3-fluoro-5-(1,1,1-trifluoro-2-methylpropan-2-yl)phenyl)-4-(1-methyl-5-(2-(5,6,7,8-tetrahydro-1,8-naphthyridin-2-yl)ethoxy)-1H-pyrazol-3-yl)butanoic Acid]: the IC50 is 4.4 nM in assay [1], 4.5 nM in assay [2], 89 nM in assay [3] and 15 nM in assay [4].

Turning to `Cn1nc(CC(CC(=O)O)c2cc(C(F)(F)F)cc(C(C)(C)C(F)(F)F)c2)cc1OCCc1ccc2c(n1)NCCC2` (centres unmarked) [Example 25, 4-[1-methyl-5-[2-(5,6,7,8-tetrahydro-1,8-naphthyridin-2-yl)ethoxy]pyrazol-3-yl]-3-[3-(2,2,2-trifluoro-1,1-dimethylethyl)-5-(trifluoromethyl)phenyl]butanoic Acid], the IC50 in assay [1] turned out to be 3.1 nM; in assay [2] it was 4.6 nM; in assay [3], 12 nM; in assay [4] it was 12 nM.

In the case of `Cn1nc(CC(CC(=O)O)c2cc(Br)cc(C(C)(C)C(F)(F)F)c2)cc1OCCc1ccc2c(n1)NCCC2` (centres unmarked) [Example 26, 3-[3-bromo-5-(2,2,2-trifluoro-1,1-dimethyl-ethyl)phenyl]-4-[1-methyl-5-[2-(5,6,7,8-tetrahydro-1,8-naphthyridin-2-yl)ethoxy]pyrazol-3-yl]butanoic Acid], the IC50 came to 6.8 nM in assay [1], 9.6 nM in assay [2], 9.3 nM in assay [3] and 16 nM in assay [4].

For `Cn1nc(CC(CC(=O)O)c2cc(Cl)cc(C(C)(C)C(F)(F)F)c2)cc1OCCc1ccc2c(n1)NCCC2` (centres unmarked) [Example 27, 3-(3-chloro-5-(1,1,1-trifluoro-2-methylpropan-2-yl)phenyl)-4-(1-methyl-5-(2-(5,6,7,8-tetrahydro-1,8-naphthyridin-2-yl)ethoxy)-1H-pyrazol-3-yl)butanoic Acid], the IC50 is 4.4 nM in assay [1], 5.6 nM in assay [2], 11 nM in assay [3] and 18 nM in assay [4].

As to `Cn1nc(CC(CC(=O)O)c2cc(C#N)cc(C(C)(C)C(F)(F)F)c2)cc1OCCc1ccc2c(n1)NCCC2` (centres unmarked) [Example 28, 3-[3-cyano-5-(2,2,2-trifluoro-1,1-dimethyl-ethyl)phenyl]-4-[1-methyl-5-[2-(5,6,7,8-tetrahydro-1,8-naphthyridin-2-yl)ethoxyl]pyrazol-3-yl]butanoic Acid Trifluoroacetate], the IC50 came to 3.9 nM in assay [1], 10 nM in assay [2], 3.5 nM in assay [3] and 8.5 nM in assay [4].

Consider `COCC1(c2cc(Cl)cc(C(CC(=O)O)Cc3cc(OCCc4ccc5c(n4)NCCC5)n(C)n3)c2)CCOCC1` (centres unmarked) [Example 29, 3-(3-chloro-5-(4-(methoxymethyl)tetrahydro-2H-pyran-4-yl)phenyl)-4-(1-methyl-5-(2-(5,6,7,8-tetrahydro-1,8-naphthyridin-2-yl)ethoxy)-1H-pyrazol-3-yl)butanoic Acid], for which the 50% inhibitory concentration (IC50) in assay [1] was 9.4 nM; in assay [2], 5.3 nM; in assay [3], 9.5 nM; in assay [4] it was 5.1 nM.

Regarding `COCC1(c2cc(F)cc(C(CC(=O)O)Cc3cc(OCCc4ccc5c(n4)NCCC5)n(C)n3)c2)CCOCC1` (centres unmarked) [Example 30, 3-(3-fluoro-5-(4-(methoxymethyl)tetrahydro-2H-pyran-4-yl)phenyl)-4-(1-methyl-5-(2-(5,6,7,8-tetrahydro-1,8-naphthyridin-2-yl)ethoxy)-1H-pyrazol-3-yl)butanoic Acid], the IC50 in assay [1] turned out to be 6.6 nM; in assay [2], 8.1 nM; in assay [3], 81 nM; in assay [4], 12 nM.

`COCC1(c2cc(C(CC(=O)O)Cc3cc(OCCc4ccc5c(n4)NCCC5)n(C)n3)cc(C(F)(F)F)c2)CCOCC1` (centres unmarked) [Example 31, 3-(3-(4-(methoxymethyl)tetrahydro-2H-pyran-4-yl)-5-(trifluoromethyl)phenyl)-4-(1-methyl-5-(2-(5,6,7,8-tetrahydro-1,8-naphthyridin-2-yl)ethoxy)-1H-pyrazol-3-yl)butanoic Acid]: the IC50 in assay [1] is 1.4 nM; in assay [2], 6.5 nM; in assay [3], 9.9 nM; in assay [4], 12 nM.

Turning to `COc1ccc(C(C)(C)C)cc1C(CC(=O)O)Cc1cc(OCCc2ccc3c(n2)NCCC3)n(C)n1` (centres unmarked) [Example 32, 3-(5-(tert-butyl)-2-methoxyphenyl)-4-(1-methyl-5-(2-(5,6,7,8-tetrahydro-1,8-naphthyridin-2-yl)ethoxy)-1H-pyrazol-3-yl)butanoic Acid], in assay [1], the “inhibitory activity at ανβ1 (in words)” value was “high inhibitory activity” and the IC50 came to 0.9 nM. In addition, in assay [2], the “inhibitory activity at ανβ3 (in words)” value is “low activity” and the IC50 is 380 nM. Further, in assay [3], the “inhibitory activity at ανβ8 (in words)” value was “low activity” and the half-inhibitory concentration (IC50) amounted to 87 nM. Moreover, in assay [4], the “inhibitory activity at α5β1 (in words)” value is recorded as “high inhibitory activity” and the IC50 is 33 nM.

In the case of `COc1c(C(CC(=O)O)Cc2cc(OCCc3ccc4c(n3)NCCC4)n(C)n2)cccc1C(C)(C)C` (centres unmarked) [Example 33, 3-(3-(tert-butyl)-2-methoxyphenyl)-4-(1-methyl-5-(2-(5,6,7,8-tetrahydro-1,8-naphthyridin-2-yl)ethoxy)-1H-pyrazol-3-yl)butanoic Acid], the IC50 in assay [1] was determined as 2400 nM; in assay [2], 150 nM; in assay [3], 970 nM; in assay [4], 3900 nM.

`COc1cc(C(C)(C)C)ccc1C(CC(=O)O)Cc1cc(OCCc2ccc3c(n2)NCCC3)n(C)n1` (centres unmarked) [Example 34, 3-(4-(tert-butyl)-2-methoxyphenyl)-4-(1-methyl-5-(2-(5,6,7,8-tetrahydro-1,8-naphthyridin-2-yl)ethoxy)-1H-pyrazol-3-yl)butanoic Acid]: the IC50 in assay [1] turned out to be 47 nM; in assay [2], 4.6 nM; in assay [3] it was 42 nM; in assay [4], 550 nM.

As to `Cn1nc(CC(CC(=O)O)c2cc(OC(F)(F)F)cc(C(C)(C)C)c2)cc1OCCc1ccc2c(n1)NCCC2` (centres unmarked) [Example 36, 3-[3-tert-butyl-5-(trifluoromethoxy)phenyl]-4-[1-methyl-5-[2-(5,6,7,8-tetrahydro-1,8-naphthyridin-2-yl)ethoxy]pyrazol-3-yl]butanoic Acid], the IC50 is 6.5 nM in assay [1], 10 nM in assay [2], 40 nM in assay [3] and 7.1 nM in assay [4].

As to `Cn1nc(CC(CC(=O)O)c2cc(C(C)(C)C)cc(C(F)(F)F)c2)cc1OCCc1ccc2c(n1)NCCC2` (centres unmarked) [Example 37, 3-[3-tert-butyl-5-(trifluoromethyl)phenyl]-4-[1-methyl-5-[2-(5,6,7,8-tetrahydro-1,8-naphthyridin-2-yl)ethoxyl]pyrazol-3-yl]butanoic Acid], the IC50 in assay [1] was 7.5 nM; in assay [2] it was 7.3 nM; in assay [3], 18 nM; in assay [4] it was 7.9 nM.

Take `Cn1nc(CC(CC(=O)O)c2cc(F)cc(C(C)(C)C)c2)cc1OCCc1ccc2c(n1)NCCC2` (centres unmarked) [Example 38, 3-(3-(tert-butyl)-5-fluorophenyl)-4-(1-methyl-5-(2-(5,6,7,8-tetrahydro-1,8-naphthyridin-2-yl)ethoxy)-1H-pyrazol-3-yl)butanoic Acid]: the IC50 in assay [1] was determined as 4.5 nM; in assay [2], 7.9 nM; in assay [3], 140 nM; in assay [4] it was 23 nM.

In the case of `COc1ccc(C(C)C)cc1C(CC(=O)O)Cc1cc(OCCc2ccc3c(n2)NCCC3)n(C)n1` (centres unmarked) [Example 39, 3-(5-isopropyl-2-methoxyphenyl)-4-(1-methyl-5-(2-(5,6,7,8-tetrahydro-1,8-naphthyridin-2-yl)ethoxy)-1H-pyrazol-3-yl)butanoic Acid Trifluoroacetate], the IC50 in assay [1] is 3.2 nM; in assay [2], 290 nM; in assay [3], 110 nM; in assay [4], 31 nM.

Consider `CC(C)c1cc(Br)cc(C(CC(=O)O)Cc2cc(OCCc3ccc4c(n3)NCCC4)n(C)n2)c1` (centres unmarked) [Example 40, 3-(3-bromo-5-isopropyl-phenyl)-4-[1-methyl-5-[2-(5,6,7,8-tetrahydro-1,8-naphthyridin-2-yl)ethoxyl]pyrazol-3-yl]butanoic acid trifluoroacetate], for which the IC50 turned out to be 6.3 nM in assay [1], 7.2 nM in assay [2], 9 nM in assay [3] and 21 nM in assay [4].

In the case of `CC(C)(C)c1cc(Br)cc(C(CC(=O)O)Cc2cc(OCCc3ccc4c(n3)NCCC4)n(CC(F)(F)F)n2)c1` (centres unmarked) [Example 41, 3-(3-bromo-5-tert-butyl-phenyl)-4-[5-[2-(5,6,7,8-tetrahydro-1,8-naphthyridin-2-yl)ethoxy]-1-(2,2,2-trifluoroethyl)pyrazol-3-yl]butanoic Acid Trifluoroacetate], the IC50 in assay [1] came to 4.5 nM; in assay [2] it was 9 nM; in assay [3] it was 6.9 nM; in assay [4] it was 6.5 nM.

Take `Cn1nc(CC(CC(=O)O)c2cc(C(C)(C)C)ccc2O)cc1OCCc1ccc2c(n1)NCCC2` (centres unmarked) [Example 42, 3-(5-tert-butyl-2-hydroxy-phenyl)-4-[1-methyl-5-[2-(5,6,7,8-tetrahydro-1,8-naphthyridin-2-yl)ethoxyl]pyrazol-3-yl]butanoic Acid Sodium Salt]: the IC50 in assay [1] stood at 2.4 nM; in assay [2], 18 nM; in assay [3], 3.1 nM; in assay [4] it was 2.1 nM.

Turning to `Cn1nc(CC(CC(=O)O)c2cc(C(C)(C)C)ccc2Cl)cc1OCCc1ccc2c(n1)NCCC2` (centres unmarked) [Example 43, 3-(5-(tert-butyl)-2-chlorophenyl)-4-(1-methyl-5-(2-(5,6,7,8-tetrahydro-1,8-naphthyridin-2-yl)ethoxy)-1H-pyrazol-3-yl)butanoic Acid Trifluoroacetate], the IC50 in assay [1] came to 7.3 nM; in assay [2] it was 94.4 nM; in assay [3] it was 88 nM; in assay [4] it was 77 nM.
